# Active and inactive are the calls of the source.
# Assays:
# [1] = Luminescence Cell-Based Dose Response to Identify Activators of 5'UTR Stem-Loop Driven Prion Protein mRNA Translation in H4-C Neuroglioblastoma Cells. [Related pubchem assays: 1829 (Project Summary), 1814 (Primary HTS)]; assay type: functional
# [2] = Luminescence Cell-Based Dose Response HTS to Identify Activators of Luciferase Translation or Activity in H4 […] Cells. [Related pubchem assays: 1829 (Project Summary), 1814 (Primary HTS)]; assay type: functional
# [3] = Luminescence Cell-Based Dose Response to Identify Activators of Luciferase Translation or Activity in H4-C Neuroglioblastoma Cells. [Related pubchem assays: 1829 (Project Summary), 1814 (Primary HTS)]; assay type: functional
# [4] = Luminescence Cell-Based Dose Confirmation to Identify Activators of 5'UTR Stem-Loop Driven Alpha-Synuclein mRNA Translation in H4 Neuroglioblastoma Cells. [Related pubchem assays: 1829 (Project Summary), 1814 (Primary HTS)]; assay type: functional
# [5] = molecular target: Aryl hydrocarbon receptor (Homo sapiens, UniProt P35869); assay: Luminescence-based cell-based high throughput dose response assay for activators of the Aryl Hydrocarbon Receptor (AHR). [Related pubchem assays: 2796 (Primary screen (AHR activators in singlicate)), 2845 (Confirmation screen (AHR activators in triplicate)), 434939 (Counterscreen (PXR activators in triplicate)), 2804 (Summary (AHR activators))]; assay type: ADME
# [6] = molecular target: T1, Oxysterols receptor LXR-beta (Homo sapiens, UniProt P55055); assay type: functional, cell-based;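 also: agonist activity at LXR measured by a cell-based luminescence readout across a dose range, run as a counterscreen for daf-12 agonists; HEK293 cells with Gal4-LXR fusion and GAL4-driven luciferase reporter; potency for activation of Gal4-LXR reporter so compounds are agonists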
# T1 sequence (P55055 whole entry): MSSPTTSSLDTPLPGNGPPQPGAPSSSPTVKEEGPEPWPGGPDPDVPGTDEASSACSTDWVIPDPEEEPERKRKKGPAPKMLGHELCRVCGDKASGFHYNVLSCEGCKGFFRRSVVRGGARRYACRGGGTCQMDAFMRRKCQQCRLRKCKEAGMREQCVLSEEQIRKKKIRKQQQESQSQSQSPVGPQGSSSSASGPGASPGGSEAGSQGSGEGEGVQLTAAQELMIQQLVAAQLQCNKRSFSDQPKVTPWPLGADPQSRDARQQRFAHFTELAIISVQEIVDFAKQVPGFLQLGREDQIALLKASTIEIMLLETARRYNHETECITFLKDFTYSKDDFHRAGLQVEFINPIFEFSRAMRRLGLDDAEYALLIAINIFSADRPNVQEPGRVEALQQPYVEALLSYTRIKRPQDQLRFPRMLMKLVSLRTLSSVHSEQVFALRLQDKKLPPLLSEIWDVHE
# [7] = Trypanosoma cruzi growth suppression in host cells – NIH3T3 host cells, beta-gal luminescence, confirmation (AID 2044); assay type: functional, cell-based;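 also: intracellular parasites grown in NIH/3T3 mouse fibroblasts as host cells; luminescent beta-galactosidase reporter signal from transgenic T. cruzi replicating inside host cells; inhibitors lower the luminescence signal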
# [8] = molecular target: T2, DNA repair and recombination protein RAD54-like (Homo sapiens, UniProt Q92698); assay: RAD54 Holliday junction migration blockers – biochemical, fluorescence, cherry-picked samples, dose series, confirmation (AID 651657); assay type: functional
# T2 sequence (Q92698 whole entry): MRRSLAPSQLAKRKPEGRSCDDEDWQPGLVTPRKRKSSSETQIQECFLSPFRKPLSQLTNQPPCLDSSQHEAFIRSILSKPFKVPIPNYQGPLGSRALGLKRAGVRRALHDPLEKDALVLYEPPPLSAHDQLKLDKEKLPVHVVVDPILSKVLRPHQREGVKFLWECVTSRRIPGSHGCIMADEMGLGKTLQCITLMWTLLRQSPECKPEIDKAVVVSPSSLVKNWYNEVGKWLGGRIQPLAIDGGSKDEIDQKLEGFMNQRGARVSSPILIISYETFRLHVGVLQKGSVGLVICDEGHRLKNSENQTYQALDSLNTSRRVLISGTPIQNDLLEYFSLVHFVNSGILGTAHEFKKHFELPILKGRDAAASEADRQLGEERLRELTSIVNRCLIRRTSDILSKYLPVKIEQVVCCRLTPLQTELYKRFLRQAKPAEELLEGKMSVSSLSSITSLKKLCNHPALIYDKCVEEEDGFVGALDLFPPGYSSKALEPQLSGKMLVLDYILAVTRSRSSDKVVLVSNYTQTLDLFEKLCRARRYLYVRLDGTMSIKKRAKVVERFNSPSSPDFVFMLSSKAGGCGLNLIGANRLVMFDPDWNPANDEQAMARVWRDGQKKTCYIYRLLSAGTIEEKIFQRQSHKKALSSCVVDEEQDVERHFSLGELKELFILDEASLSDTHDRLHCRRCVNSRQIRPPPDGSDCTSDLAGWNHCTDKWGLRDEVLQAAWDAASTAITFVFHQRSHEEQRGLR
# [9] = Luminescent dose response cell-based high throughput screening assay for inhibitors of the Janus kinase 2 mutant JAK2V617F. [Related pubchem assays: 1446 (Primary screen.), 1521 (Confirmation assay.), 1486 (Counter screen.)]; assay type: functional
# [10] = M. tuberculosis H37Rv growth inhibitors, H37Rv strain (AID 1626); assay type: functional
# [11] = molecular target: 5-hydroxytryptamine receptor 1A (Homo sapiens, UniProt P08908); assay type: functional
# Sequence of 5-hydroxytryptamine receptor 1A (P08908 whole entry): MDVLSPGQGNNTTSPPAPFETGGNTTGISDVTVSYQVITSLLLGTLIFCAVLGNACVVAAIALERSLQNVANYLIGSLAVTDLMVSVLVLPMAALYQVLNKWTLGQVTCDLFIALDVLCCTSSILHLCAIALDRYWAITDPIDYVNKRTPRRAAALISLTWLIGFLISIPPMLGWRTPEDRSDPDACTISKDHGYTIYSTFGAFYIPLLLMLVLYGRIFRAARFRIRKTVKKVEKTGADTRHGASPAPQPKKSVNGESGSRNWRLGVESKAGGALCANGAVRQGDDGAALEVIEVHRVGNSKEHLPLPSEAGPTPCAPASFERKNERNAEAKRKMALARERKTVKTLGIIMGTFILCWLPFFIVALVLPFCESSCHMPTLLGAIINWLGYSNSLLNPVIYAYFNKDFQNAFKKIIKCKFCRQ
# Sequence of Aryl hydrocarbon receptor (P35869 whole entry, the tested form may be a part): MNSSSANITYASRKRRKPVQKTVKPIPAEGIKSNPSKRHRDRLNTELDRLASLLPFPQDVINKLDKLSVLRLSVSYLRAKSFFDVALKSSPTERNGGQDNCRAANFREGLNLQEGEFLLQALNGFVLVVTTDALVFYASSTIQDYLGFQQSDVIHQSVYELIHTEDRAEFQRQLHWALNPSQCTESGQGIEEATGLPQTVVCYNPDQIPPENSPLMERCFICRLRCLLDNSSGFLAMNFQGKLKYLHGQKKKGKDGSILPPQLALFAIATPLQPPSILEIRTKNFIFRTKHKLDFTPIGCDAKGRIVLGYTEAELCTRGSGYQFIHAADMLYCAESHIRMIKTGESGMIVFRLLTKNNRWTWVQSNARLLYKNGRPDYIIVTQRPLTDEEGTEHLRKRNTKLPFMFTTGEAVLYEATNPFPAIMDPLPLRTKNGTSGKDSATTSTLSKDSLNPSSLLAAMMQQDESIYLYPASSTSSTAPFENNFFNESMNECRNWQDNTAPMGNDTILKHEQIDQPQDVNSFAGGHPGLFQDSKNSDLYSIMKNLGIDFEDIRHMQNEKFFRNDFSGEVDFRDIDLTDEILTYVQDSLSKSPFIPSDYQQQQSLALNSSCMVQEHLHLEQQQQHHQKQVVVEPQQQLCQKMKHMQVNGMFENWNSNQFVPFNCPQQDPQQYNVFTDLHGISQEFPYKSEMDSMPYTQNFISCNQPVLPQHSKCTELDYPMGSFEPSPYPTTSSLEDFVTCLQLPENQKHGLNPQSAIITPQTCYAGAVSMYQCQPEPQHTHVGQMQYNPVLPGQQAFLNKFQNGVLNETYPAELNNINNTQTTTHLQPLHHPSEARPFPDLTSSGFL
smiles,measurement,setting,value
O=c1sc(N2CCN(c3ccccc3F)CC2)nc2ccsc12,EC50,[1],0.309 µM (active)
same,EC50,[2],< 0.1 µM (inconclusive)
same,EC50,[3],0.349 µM (active)
same,EC50,[4],0.237 µM (active)
Cc1ccc(Nc2ncccc2C(N)=O)cc1,EC50,[5],1.36 µM (active)
same,EC50,[6],> 67.4 µM (inactive)
CC1CCN(CCCNC(=O)c2cc3c(Cl)nc4ccccc4c3s2)CC1,EC50,[7],2.1 µM (active)
same,AC50,[8],11.7 µM (active)
same,IC50,[9],0.96 µM (active)
O=C(Nc1nnc(-c2ccc3c(c2)OCCO3)o1)C1CCCCC1,IC50,[10],> 100 µM (active)
CN1CCN(/C(=N\O)c2nonc2N)CC1,EC50,[11],> 50 µM (not active)

# Reference: ChEMBL document CHEMBL1201862, “PubChem BioAssay data set” (2004)
